# Tests used:
# [1] = molecular target: T1, CYP3A4 (Homo sapiens, UniProt P08684); experiment: CYP inhibition assay (LC/MS, pooled human liver microsomes); format: in vitro ADME; settings: n=1
# T1 construct: using pooled human liver microsomes (n=1); from tissue; host or cells: pooled human liver microsomes
# [2] = tested on: p38 pathway; experiment: HeLa cell phospho-HSP27 assay, anisomycin-stimulated; format: cell-based; settings: Homo sapiens; HeLa cells, 60 min pretreatment, 1 μg/mL anisomycin 60 min; read-out: apparent IC50, p38 pathway in cells (phospho-HSP27 Ser78)
# Source text: Cells were labeled with antibodies against the phosphorylated form of HSP27 (Ser78) and GAPDH as a normalization control. Cells were imaged and quantified using a LI-COR Aeriustm imager.
# [3] = tested on: micronucleus; experiment: Micronucleus assay (in vitro); format: cell-based
# Protocol: hERG assay was performed using a standard patch clamp protocol. AMES assay (bacterial reverse mutation assay) was performed according to protocol. […] In vitro and in vivo micronucleus assays were performed according to protocol.
# [4] = molecular target: T2, VEGFR2 (Homo sapiens, UniProt P35968); experiment: VEGFR2 autophosphorylation (Tyr1175) in VEGF-stimulated HUVECs; format: cell-based; settings: 20 ng/mL VEGF for 5 minutes, read-out: IC50, VEGFR2 autophosphorylation at Tyrosine residue 1175
# T2 construct: endogenous in cells; host or cells: HUVEC
# Protocol: Lysates of the various treatments were prepared and immunoblotted with antibodies specific for VEGFR2 phosphorylated at Tyr1175. […] Phospho-VEGFR2 signal was normalized to GAPDH as a loading control.
# [5] = molecular target: Abl (Homo sapiens, UniProt P00519); experiment: protein kinase IC50 determination (ATP at Km); format: biochemical; settings: ATP concentration at Km
# [6] = tested on: K562 cells; experiment: K562 subcutaneous tumor model (BCR-Abl-driven tumors); format: in vivo, Female Scid-beige mice; settings: for % Regression / Complete responses: K562 tumors, PO ×7, dosed as Compound 74; for Complete responses: n=8
# Protocol: Test compounds were administered by oral gavage at the indicated doses and schedules when tumors reached 200±50 mm^3 in size. […] Tumor size and body weight were monitored throughout the study.
# [7] = molecular target: Fyn (Homo sapiens, UniProt P06241); experiment: protein kinase IC50 determination (ATP at Km); format: biochemical; settings: ATP concentration at Km
# [8] = molecular target: Abl (T315I) (Homo sapiens, UniProt P00519, T315I); experiment: protein kinase IC50 determination (ATP at Km); format: biochemical; settings: ATP concentration at Km
# [9] = Pharmacokinetics in rat; format: in vivo, male Sprague-Dawley rats
# Source text: Non-compartmental (model independent) methods were used to analyze the plasma concentration time-curves derived from all species as described below. Clearance (Cl), calculated percent extraction ratios (ER %), volume of distribution (Vz), time to […] (t1/2) and exposure (AUC, area under the curve) values are provided below for mouse, rat, and monkey, respectively.
# 2. […] Blood was sampled at the same time points as listed for the Mouse PK study.
# [10] = molecular target: FGFR1 (Homo sapiens, UniProt P11362); experiment: protein kinase IC50 determination (ATP at Km); format: biochemical; settings: ATP concentration at Km
# [11] = molecular target: T3, BCR-Abl (Homo sapiens, UniProt P00519); experiment: K562 immunoblot for p-Abl, pSTAT5, pCrkL; format: cell-based; settings: K562 cells, 2 hours, 37-5000 nM
# T3 construct: BCR (N-terminal part, natural fusion partner of the Philadelphia-chromosome chimera); endogenous in cells; host or cells: K562; the other entry of the earlier key: BCR (P11274, Breakpoint cluster region protein)
# [12] = tested on: RPMI 8226 cells; experiment: RPMI 8226 multiple myeloma tumor model; format: in vivo, Female Scid-beige mice
# Protocol: Female Scid-beige mice (17-20 g), n=8 per group, were implanted with 15×10^6 RPMI 8226 cells subcutaneously on the right flank with either vehicle (20% Trappsol, 10 mL/kg, PO, BID×14) or Compound 74 (100 mg/kg active drug, PO, BID×14). Test compounds were administered by oral gavage at the indicated doses and schedules when tumors reached 200±50 mm^3 in size.
# [13] = molecular target: Tie2 (Homo sapiens, UniProt Q02763); experiment: protein kinase IC50 determination (ATP at Km); format: biochemical; settings: ATP concentration at Km
# [14] = molecular target: Arg (Homo sapiens, UniProt P42684); experiment: protein kinase IC50 determination (ATP at Km); format: biochemical; settings: ATP concentration at Km
# [15] = tested on: RPMI 8226; experiment: RPMI 8226 cell viability (CellTiter Blue); format: cell-based; settings: RPMI 8226, 72 hours
# Protocol: Cell viability was then measured using CellTiter Blue (Promega) to determine IC50 values for each compound (Table 8). […] MG-132 produced an IC50 that was within historical ranges of in-house testing (Table 8).
# [16] = male, Sprague-Dawley, plasma, IV: 1 mg/kg
# T1 sequence (P08684 whole entry): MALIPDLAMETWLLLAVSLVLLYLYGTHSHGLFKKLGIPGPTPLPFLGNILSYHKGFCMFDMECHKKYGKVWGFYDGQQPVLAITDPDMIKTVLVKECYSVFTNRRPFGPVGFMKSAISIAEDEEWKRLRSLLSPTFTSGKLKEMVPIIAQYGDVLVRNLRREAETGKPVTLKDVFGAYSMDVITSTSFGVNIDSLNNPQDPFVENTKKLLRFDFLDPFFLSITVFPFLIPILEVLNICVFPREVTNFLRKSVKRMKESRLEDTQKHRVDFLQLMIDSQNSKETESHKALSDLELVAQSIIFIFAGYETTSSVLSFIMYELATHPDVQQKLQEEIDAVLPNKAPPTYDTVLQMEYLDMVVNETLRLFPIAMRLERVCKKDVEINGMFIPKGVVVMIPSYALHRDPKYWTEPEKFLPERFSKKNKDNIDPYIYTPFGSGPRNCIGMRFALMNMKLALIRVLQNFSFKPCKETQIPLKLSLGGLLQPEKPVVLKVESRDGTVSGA
# Sequence of Arg (P42684 whole entry): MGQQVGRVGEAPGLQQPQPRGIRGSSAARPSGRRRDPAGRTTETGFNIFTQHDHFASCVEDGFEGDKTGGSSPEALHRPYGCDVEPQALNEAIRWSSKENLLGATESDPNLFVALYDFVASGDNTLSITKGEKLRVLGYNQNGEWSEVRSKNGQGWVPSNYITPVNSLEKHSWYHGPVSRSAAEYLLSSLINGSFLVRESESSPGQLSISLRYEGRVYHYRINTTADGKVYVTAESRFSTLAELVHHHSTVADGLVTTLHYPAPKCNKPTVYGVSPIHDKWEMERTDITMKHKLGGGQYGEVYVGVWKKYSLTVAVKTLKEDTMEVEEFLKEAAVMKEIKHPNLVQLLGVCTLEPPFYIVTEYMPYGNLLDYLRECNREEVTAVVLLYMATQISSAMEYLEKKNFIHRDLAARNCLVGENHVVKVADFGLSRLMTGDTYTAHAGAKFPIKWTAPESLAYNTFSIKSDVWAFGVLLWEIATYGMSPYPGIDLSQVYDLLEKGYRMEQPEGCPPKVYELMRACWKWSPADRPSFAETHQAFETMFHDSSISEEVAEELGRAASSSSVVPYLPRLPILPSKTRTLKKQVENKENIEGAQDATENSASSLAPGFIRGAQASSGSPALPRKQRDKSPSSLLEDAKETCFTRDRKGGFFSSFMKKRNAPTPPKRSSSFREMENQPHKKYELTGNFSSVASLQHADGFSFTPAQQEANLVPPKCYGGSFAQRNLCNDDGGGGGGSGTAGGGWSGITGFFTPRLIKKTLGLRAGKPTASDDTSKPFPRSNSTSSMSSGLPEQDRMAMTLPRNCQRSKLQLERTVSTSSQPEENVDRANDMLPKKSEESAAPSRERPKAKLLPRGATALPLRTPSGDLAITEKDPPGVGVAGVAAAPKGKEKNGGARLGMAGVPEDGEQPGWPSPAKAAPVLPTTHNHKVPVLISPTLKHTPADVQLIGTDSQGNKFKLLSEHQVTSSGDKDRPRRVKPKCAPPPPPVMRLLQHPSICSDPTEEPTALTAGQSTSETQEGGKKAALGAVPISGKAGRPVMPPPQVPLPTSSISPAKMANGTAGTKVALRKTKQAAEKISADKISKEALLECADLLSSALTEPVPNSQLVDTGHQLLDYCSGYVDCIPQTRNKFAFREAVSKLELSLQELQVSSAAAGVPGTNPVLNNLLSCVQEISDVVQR
# T2 sequence (P35968 20-1356): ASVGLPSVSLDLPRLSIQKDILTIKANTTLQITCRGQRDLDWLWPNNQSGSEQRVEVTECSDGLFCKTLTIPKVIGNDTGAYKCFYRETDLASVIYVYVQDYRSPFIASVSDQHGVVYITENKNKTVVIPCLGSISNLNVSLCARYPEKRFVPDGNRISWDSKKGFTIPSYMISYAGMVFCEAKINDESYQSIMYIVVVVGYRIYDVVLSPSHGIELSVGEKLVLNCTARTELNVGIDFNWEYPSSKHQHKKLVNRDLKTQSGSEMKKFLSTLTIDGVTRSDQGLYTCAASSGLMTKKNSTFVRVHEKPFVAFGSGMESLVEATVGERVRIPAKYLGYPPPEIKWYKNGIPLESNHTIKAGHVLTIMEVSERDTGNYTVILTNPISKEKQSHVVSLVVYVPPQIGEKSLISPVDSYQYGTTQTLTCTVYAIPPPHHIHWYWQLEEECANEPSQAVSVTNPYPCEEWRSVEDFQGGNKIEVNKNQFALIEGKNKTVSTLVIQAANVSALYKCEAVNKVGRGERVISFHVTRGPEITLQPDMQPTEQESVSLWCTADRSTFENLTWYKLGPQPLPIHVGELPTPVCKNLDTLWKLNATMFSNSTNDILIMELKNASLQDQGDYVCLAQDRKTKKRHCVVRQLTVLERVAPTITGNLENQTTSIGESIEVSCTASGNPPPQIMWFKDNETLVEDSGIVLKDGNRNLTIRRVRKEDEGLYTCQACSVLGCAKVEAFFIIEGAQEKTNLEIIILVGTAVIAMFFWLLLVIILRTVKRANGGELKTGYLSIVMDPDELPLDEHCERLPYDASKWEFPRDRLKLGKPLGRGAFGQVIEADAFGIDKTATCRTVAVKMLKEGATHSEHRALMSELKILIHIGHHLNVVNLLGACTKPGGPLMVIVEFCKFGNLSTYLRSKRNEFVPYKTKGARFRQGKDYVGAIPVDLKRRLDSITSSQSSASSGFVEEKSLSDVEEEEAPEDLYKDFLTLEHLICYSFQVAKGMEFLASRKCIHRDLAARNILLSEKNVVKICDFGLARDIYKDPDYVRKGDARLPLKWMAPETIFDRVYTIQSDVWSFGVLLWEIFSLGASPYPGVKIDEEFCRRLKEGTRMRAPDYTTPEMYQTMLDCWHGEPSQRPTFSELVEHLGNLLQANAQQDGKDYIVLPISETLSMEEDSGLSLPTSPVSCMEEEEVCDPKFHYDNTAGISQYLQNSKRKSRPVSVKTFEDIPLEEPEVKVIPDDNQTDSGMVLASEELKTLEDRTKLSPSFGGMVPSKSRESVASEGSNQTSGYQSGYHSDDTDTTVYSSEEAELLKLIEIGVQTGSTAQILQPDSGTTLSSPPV
# Sequence of Tie2 (Q02763 23-1124, species assumed): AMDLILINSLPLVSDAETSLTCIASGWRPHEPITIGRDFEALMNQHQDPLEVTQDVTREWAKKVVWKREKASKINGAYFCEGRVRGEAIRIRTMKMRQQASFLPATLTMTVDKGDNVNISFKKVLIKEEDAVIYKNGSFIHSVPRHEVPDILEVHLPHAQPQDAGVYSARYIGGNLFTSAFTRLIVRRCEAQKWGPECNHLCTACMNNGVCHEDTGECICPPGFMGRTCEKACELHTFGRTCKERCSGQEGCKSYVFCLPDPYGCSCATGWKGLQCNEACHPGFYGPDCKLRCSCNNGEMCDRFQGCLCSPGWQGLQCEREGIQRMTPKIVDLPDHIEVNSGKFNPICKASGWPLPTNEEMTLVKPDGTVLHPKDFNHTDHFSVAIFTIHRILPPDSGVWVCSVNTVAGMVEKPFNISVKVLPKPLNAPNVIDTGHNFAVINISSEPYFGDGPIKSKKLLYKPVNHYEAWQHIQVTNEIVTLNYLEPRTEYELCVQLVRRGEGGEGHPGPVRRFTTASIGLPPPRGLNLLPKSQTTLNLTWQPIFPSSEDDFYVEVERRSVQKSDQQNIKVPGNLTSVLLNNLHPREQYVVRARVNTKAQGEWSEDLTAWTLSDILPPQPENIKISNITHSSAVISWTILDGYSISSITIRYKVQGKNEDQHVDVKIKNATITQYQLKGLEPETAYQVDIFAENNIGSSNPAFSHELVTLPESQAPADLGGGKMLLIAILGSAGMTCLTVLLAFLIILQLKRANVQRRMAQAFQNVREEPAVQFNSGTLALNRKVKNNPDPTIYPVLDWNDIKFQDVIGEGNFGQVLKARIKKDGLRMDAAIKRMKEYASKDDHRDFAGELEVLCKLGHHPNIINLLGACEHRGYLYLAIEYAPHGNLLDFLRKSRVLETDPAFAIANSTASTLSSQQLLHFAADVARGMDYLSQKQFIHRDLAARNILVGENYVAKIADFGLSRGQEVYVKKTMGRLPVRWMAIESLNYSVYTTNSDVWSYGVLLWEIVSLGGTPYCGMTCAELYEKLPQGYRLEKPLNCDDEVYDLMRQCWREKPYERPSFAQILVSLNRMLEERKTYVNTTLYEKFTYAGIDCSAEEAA
# Sequence of FGFR1 (P11362 22-822, species assumed): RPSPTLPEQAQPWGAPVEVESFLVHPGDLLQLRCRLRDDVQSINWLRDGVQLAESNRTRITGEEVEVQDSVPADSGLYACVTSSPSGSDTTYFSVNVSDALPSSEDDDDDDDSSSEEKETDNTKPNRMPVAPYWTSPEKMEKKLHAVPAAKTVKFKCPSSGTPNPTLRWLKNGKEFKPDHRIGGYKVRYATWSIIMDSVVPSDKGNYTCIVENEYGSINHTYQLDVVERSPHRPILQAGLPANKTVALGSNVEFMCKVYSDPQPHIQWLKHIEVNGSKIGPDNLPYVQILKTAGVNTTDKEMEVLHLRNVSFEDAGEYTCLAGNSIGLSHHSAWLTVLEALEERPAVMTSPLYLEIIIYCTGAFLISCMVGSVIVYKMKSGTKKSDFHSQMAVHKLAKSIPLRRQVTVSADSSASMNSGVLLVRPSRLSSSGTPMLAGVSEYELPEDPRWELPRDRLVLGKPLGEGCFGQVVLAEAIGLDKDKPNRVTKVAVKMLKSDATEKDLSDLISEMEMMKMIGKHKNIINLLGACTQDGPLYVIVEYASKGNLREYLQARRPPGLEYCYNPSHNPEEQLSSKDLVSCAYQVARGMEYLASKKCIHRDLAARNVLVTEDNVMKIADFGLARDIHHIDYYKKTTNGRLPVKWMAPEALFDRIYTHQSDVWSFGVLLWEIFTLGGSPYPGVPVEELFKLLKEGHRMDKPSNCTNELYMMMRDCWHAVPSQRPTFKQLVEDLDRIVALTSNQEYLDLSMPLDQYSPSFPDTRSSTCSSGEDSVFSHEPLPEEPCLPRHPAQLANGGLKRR
smiles,measurement,setting,value
"Cc1ccc(-n2nc(C(C)(C)C)cc2NC(=O)NCc2cc(F)ccc2Oc2ccc3c(cnn3CCO)c2)cc1 [Compound 72, 1-(3-tert-butyl-1-p-tolyl-1H-pyrazol-5-yl)-3-(5-fluoro-2-(1-(2-hydroxyethyl)-1H-indazol-5-yloxy)benzyl)urea]",IC50,[1]; substrate Midazolam,~8000 nM
same,IC50,[1]; substrate Testosterone,~10000 nM
same,IC50,[2],2 nM
same,Micronucleus (in vitro),[3],Negative
same,IC50,[4],48 nM
same,IC50,[5],4 nM
same,body weight loss,"[6]; K562 tumor-bearing Scid-beige mice, throughout the course of treatment",less than 10%
same,% Regression,[6]; 30 mg/kg BID,Stasis
same,Complete responses,[6]; 30 mg/kg BID,0/8
same,% Regression,[6]; 100 mg/kg BID,93%
same,Complete responses,[6]; 100 mg/kg BID,5/8
same,% Regression,[6]; 100 mg/kg QD,Stasis
same,Complete responses,[6]; 100 mg/kg QD,0/8
same,IC50,[7],41 nM
same,IC50,[8],68 nM
same,AUC,[9]; IV: 1 mg/kg,AUC = 4.7 μg-hr/kg
same,ER,[9]; IV: 1 mg/kg,ER = 4.6%
same,AUC,[9]; Oral: 30 mg/kg,AUC = 35 μg-hr/kg
same,F,[9]; Oral: 30 mg/kg,F = 15%
same,clearance,[9]; [16],3.2 mL/min/kg
same,half-life,[9]; [16],3.9 h
same,Vd,"[9]; male, Sprague-Dawley, plasma, IV: 1 mg/kg, read-out: Vz",0.048 L/kg
same,Cmax,"[9]; male, Sprague-Dawley, plasma, Oral: 30 mg/kg",4500 ng/mL
same,IC50,[10],28 nM
same,inhibition of autophosphorylation of BCR-Abl and phosphorylation of its substrates STAT5 and CrkL (immunoblot),[11],capable of inhibiting
same,body weight loss,"[12]; RPMI 8226 tumor-bearing Scid-beige mice, throughout treatment",less than 10%
same,effect on tumor growth,"[12]; RPMI 8226 tumors, 100 mg/kg PO, BID×14, dosed as Compound 74",statistically significant effect on tumor growth
same,% Tumor growth inhibition (TGI),"[12]; RPMI 8226 tumors, 100 mg/kg active drug, PO, BID×14, dosed as Compound 74",67%
same,IC50,[13],1 nM
same,IC50,[14],10 nM
same,IC50,"[15]; Homo sapiens, read-out: Proliferation IC50",> 10000 nM
same,anti-proliferative effect,[15]; over the indicated concentration range,not anti-proliferative

# Reference: patent US8039639B2, “Kinase inhibitors and methods of use thereof” (Array BioPharma Inc., priority 2006, dated 2011)
